Test: Cmax in po dosed human plasma
Type: ADME, organism-based
Parameters: route po

Compound | Cmax
CC(C)=CCC[C@](C)(O[C@H]1O[C@H](CO)[C@@H](O)[C@H](O)[C@H]1O)[C@H]1CC[C@]2(C)[C@@H]1[C@H](O)C[C@@H]1[C@@]3(C)CC[C@H](O)C(C)(C)[C@@H]3CC[C@]12C | 8.35 ng/mL
CC(C)=CCC[C@](C)(O[C@@H]1O[C@H](CO[C@@H]2O[C@H](CO)[C@@H](O)[C@H](O)[C@H]2O)[C@@H](O)[C@H](O)[C@H]1O)[C@H]1CC[C@]2(C)[C@@H]1[C@H](O)C[C@@H]1[C@@]3(C)CC[C@H](O[C@@H]4O[C@H](CO)[C@@H](O)[C@H](O)[C@H]4O[C@@H]4O[C@H](CO)[C@@H](O)[C@H](O)[C@H]4O)C(C)(C)[C@@H]3CC[C@]12C [GINSENOSIDE RB1] | 3.94 ng/mL
